Results on 13 compounds are retold here after ChEMBL document CHEMBL1134745, “Synthesis and evaluation of novel pseudomycin side-chain analogues. Part 3” (2001).

In brackets after ≈: the same amount, converted by molar mass. Positions of bridges follow the written chain, without caps; N, C: chain ends. Non-standard residues stand in square brackets, D forms with d. Residues, ends and D or L forms follow the SMILES beside them. *: point of attachment. Tetradecanoyl(3R-OH) = CCCCCCCCCCC[C@@H](O)CC(=O)*; Asp(3S-OH) = N[C@H](C(=O)O)[C@H](O)C(=O)O; Thr(4-Cl) = N[C@H](C(=O)O)[C@H](O)CCl; aThr = C[C@H](O)[C@H](N)C(=O)O; dDab = NCC[C@@H](N)C(=O)O; Dab = NCC[C@H](N)C(=O)O; Dhb = C/C=C(\N)C(=O)O A value given as a limit tells only on which side of the number the result lay.

For assay [1], the system named is Aspergillus fumigatus. The assay can be described thus: Lowest concentration required to inhibit 90-100% in vitro growth of Aspergillus fumigatus. The format is functional.
In assay [2] the test system is Cryptococcus neoformans. The assay can be described thus: Lowest concentration required to inhibit 90-100% in vitro growth of Cryptococcus neoformans.
Assay [3] concerns Candida albicans. The assay can be described thus: Lowest concentration required to inhibit 90-100% in vitro growth of Candida albicans. The format is functional.
For assay [4], the species on record is Mus musculus. The experiment in a line: Ratio of the drug concentration required to achieve 50% survival of fungal infection compared with untreated animals to that of ED50 of PSB. It counts as functional.
Assay [5] concerns Mus musculus. The assay can be described thus: Tail vein toxicity at 20 mg/kg dose was determined in mice;Positive. The format is functional, organism-based. Details: dose 20 mg/kg.
Assay [6] is filed under the species Mus musculus. The assay can be described thus: Ratio of the drug concentration required to achieve 50% survival of fungal infection compared with untreated animals to that of ED50 of PSB;value in range of 2-7. It counts as functional.

For the compound `C/C=C1/NC(=O)[C@H]([C@@H](C)O)NC(=O)[C@H](CCNC(=O)OCOC(=O)C(C)(C)C)NC(=O)[C@H](CCCCNC(=O)OCOC(=O)C(C)(C)C)NC(=O)[C@H](CC(=O)O)NC(=O)[C@@H](CCNC(=O)OCOC(=O)C(C)(C)C)NC(=O)[C@@H](NC(=O)C[C@@H](O)CCCCCCCCCCCCCCC)COC(=O)[C@H]([C@H](O)CCl)NC(=O)[C@H]([C@H](O)C(=O)O)NC1=O`, the minimal inhibitory concentration (MIC) in assay [1], in assay [2] and in assay [3] was more than 20 µg/mL throughout. In assay [4], the Ratio is reported as more than 20.

In the case of `C/C=C1\NC(=O)[C@H]([C@@H](C)O)NC(=O)[C@H](CCN)NC(=O)[C@H](CCCCN)NC(=O)[C@H](CC(=O)NC2CC2)NC(=O)[C@@H](CCN)NC(=O)[C@@H](NC(=O)C[C@@H](O)CCCCCCCCCCC)COC(=O)[C@H]([C@H](O)CCl)NC(=O)[C@H]([C@H](O)C(=O)O)NC1=O`, the MIC is more than 20 µg/mL in assay [1], less than 0.01 µg/mL in assay [2] and 0.156 µg/mL (≈ 0.125 µM) in assay [3]. Moreover, the Ratio in assay [4] was less than 5.

Turning to `C/C=C1\NC(=O)[C@H]([C@@H](C)O)NC(=O)[C@H](CCN)NC(=O)[C@H](CCCCN)NC(=O)[C@H](CC(=O)OC)NC(=O)[C@@H](CCN)NC(=O)[C@@H](NC(=O)C[C@@H](O)CCCCCCCCCCCCCCC)COC(=O)[C@H]([C@H](O)CCl)NC(=O)[C@H]([C@H](O)C(=O)OC)NC1=O`, the MIC in assay [1] was determined as 20 µg/mL (≈ 15.5 µM); in assay [2], 1.25 µg/mL (≈ 0.968 µM); in assay [3], 5 µg/mL (≈ 3.87 µM). In addition, in assay [4], the Ratio is more than 20.

With `C/C=C1\NC(=O)[C@H]([C@H](C)O)NC(=O)[C@H](CCN)NC(=O)[C@H](CCCCN)NC(=O)[C@H](CC(=O)O)NC(=O)[C@@H](CCN)NC(=O)[C@@H](NC(=O)C[C@H](O)CCCCCCCCCCCCCCC)COC(=O)[C@H]([C@H](O)CCl)NC(=O)[C@H]([C@H](O)C(=O)O)NC1=O`, the minimum inhibitory concentration (MIC) in assay [1] came out at 5 µg/mL (≈ 3.96 µM); in assay [2] it was 0.01 µg/mL (≈ 0.00791 µM); in assay [3], 0.625 µg/mL (≈ 0.495 µM). In addition, the Toxicity entry in assay [5] is “Positive”. In assay [4], the Ratio was more than 20.

Consider `C/C=C1\NC(=O)[C@H]([C@@H](C)O)NC(=O)[C@H](CCNC(=O)OCc2oc(=O)oc2C)NC(=O)[C@H](CCCCNC(=O)OCc2oc(=O)oc2C)NC(=O)[C@H](CC(=O)O)NC(=O)[C@@H](CCNC(=O)OCc2oc(=O)oc2C)NC(=O)[C@@H](NC(=O)C[C@@H](O)CCCCCCCCCCC)COC(=O)[C@H]([C@H](O)CCl)NC(=O)[C@H]([C@H](O)C(=O)O)NC1=O`, for which the MIC in assay [1], in assay [2] and in assay [3] was more than 20 µg/mL in each case. The Ratio in assay [4] was 7.8.

`C/C=C1\NC(=O)[C@H]([C@H](C)O)NC(=O)[C@H](CCN)NC(=O)[C@H](CCCCN)NC(=O)[C@H](CC(=O)O)NC(=O)[C@@H](CCN)NC(=O)[C@@H](NC(=O)C[C@H](O)CCCCCCCCCCC)COC(=O)[C@H]([C@H](O)CCl)NC(=O)[C@H]([C@H](O)C(=O)O)NC1=O` [PSEUDOMYCIN B] ({Tetradecanoyl(3R-OH)}-S[dDab]DK[Dab][aThr][Dhb][Asp(3S-OH)][Thr(4-Cl)]; ester 1-C): the values for the minimum inhibitory concentration (MIC) in assay [1], in assay [2] and in assay [3] were 20 µg/mL (≈ 16.6 µM), 0.039 µg/mL (≈ 0.0323 µM) and 0.625 µg/mL (≈ 0.517 µM), respectively. The Toxicity result in assay [5] is “Positive”. In addition, the Ratio in assay [6] was found to be 7.

Turning to `C/C=C1\NC(=O)[C@H]([C@@H](C)O)NC(=O)[C@H](CCNC(=O)OCc2oc(=O)oc2C)NC(=O)[C@H](CCCCNC(=O)OCc2oc(=O)oc2C)NC(=O)[C@H](CC(=O)O)NC(=O)[C@@H](CCNC(=O)OCc2oc(=O)oc2C)NC(=O)[C@@H](NC(=O)C[C@@H](O)CCCCCCCCCCCCCCC)COC(=O)[C@H]([C@H](O)CCl)NC(=O)[C@H]([C@H](O)C(=O)O)NC1=O`, the MIC in assay [1], in assay [2] and in assay [3] was more than 20 µg/mL in each case. In addition, the Ratio in assay [4] is listed as more than 19.

Consider `C/C=C1\NC(=O)[C@H]([C@@H](C)O)NC(=O)[C@H](CCN)NC(=O)[C@H](CCCCN)NC(=O)[C@H](CC(=O)NCCN(C)C)NC(=O)[C@@H](CCN)NC(=O)[C@@H](NC(=O)C[C@@H](O)CCCCCCCCCCC)COC(=O)[C@H]([C@H](O)CCl)NC(=O)[C@H]([C@H](O)C(=O)O)NC1=O`, for which the MIC in assay [1] is 5 µg/mL (≈ 3.91 µM); in assay [2], less than 0.01 µg/mL; in assay [3], 0.156 µg/mL (≈ 0.122 µM). Also, in assay [4], the Ratio is less than 5.

`C/C=C1\NC(=O)[C@H]([C@@H](C)O)NC(=O)[C@H](CCN)NC(=O)[C@H](CCCCN)NC(=O)[C@H](CC(=O)O)NC(=O)[C@@H](CCN)NC(=O)[C@@H](NC(=O)C[C@H](O)CCCCCCCCCCCCCCC)COC(=O)[C@H]([C@H](O)CCl)NC(=O)[C@H]([C@H](O)C(=O)O)NC1=O`: the figures for the minimum inhibitory concentration (MIC) in assay [1], in assay [2] and in assay [3] were 5 µg/mL (≈ 3.96 µM), 0.02 µg/mL (≈ 0.0158 µM) and 1.25 µg/mL (≈ 0.989 µM), respectively. The Ratio in assay [4] is recorded as more than 20.

Take `C/C=C1\NC(=O)[C@H]([C@@H](C)O)NC(=O)[C@H](CCNC(=O)OCOC(=O)C(C)(C)C)NC(=O)[C@H](CCCCNC(=O)OCOC(=O)C(C)(C)C)NC(=O)[C@H](CC(=O)O)NC(=O)[C@@H](CCNC(=O)OCOC(=O)C(C)(C)C)NC(=O)[C@@H](NC(=O)C[C@@H](O)CCCCCCCCCCC)COC(=O)[C@H]([C@H](O)CCl)NC(=O)[C@H]([C@H](O)C(=O)O)NC1=O`: the MIC in assay [1], in assay [2] and in assay [3] was more than 20 µg/mL in each case. For the same compound, in assay [4], the Ratio stood at 6.4.

`C/C=C1\NC(=O)[C@H]([C@@H](C)O)NC(=O)[C@H](CCN)NC(=O)[C@H](CCCCN)NC(=O)[C@H](CC(=O)OC)NC(=O)[C@@H](CCN)NC(=O)[C@@H](NC(=O)C[C@@H](O)CCCCCCCCCCC)COC(=O)[C@H]([C@H](O)CCl)NC(=O)[C@H]([C@H](O)C(=O)OC)NC1=O`: the MIC in assay [1] amounted to 20 µg/mL (≈ 16.2 µM); in assay [2], 0.01 µg/mL (≈ 0.00809 µM); in assay [3] it was 2.5 µg/mL (≈ 2.02 µM). Besides, the Ratio in assay [4] is listed as 7.8.

Consider `C/C=C1\NC(=O)[C@H]([C@@H](C)O)NC(=O)[C@H](CCNC(=O)OCOC(=O)C(C)C)NC(=O)[C@H](CCCCNC(=O)OCOC(=O)C(C)C)NC(=O)[C@H](CC(=O)O)NC(=O)[C@@H](CCNC(=O)OCOC(=O)C(C)C)NC(=O)[C@@H](NC(=O)C[C@@H](O)CCCCCCCCCCC)COC(=O)[C@H]([C@H](O)CCl)NC(=O)[C@H]([C@H](O)C(=O)O)NC1=O`, for which the MIC in assay [1], in assay [2] and in assay [3] was more than 20 µg/mL in each case. Also, the Ratio in assay [4] turned out to be 11.4.

`C/C=C1\NC(=O)[C@H]([C@@H](C)O)NC(=O)[C@H](CCNC(=O)OCOC(=O)C(C)C)NC(=O)[C@H](CCCCNC(=O)OCOC(=O)C(C)C)NC(=O)[C@H](CC(=O)O)NC(=O)[C@@H](CCNC(=O)OCOC(=O)C(C)C)NC(=O)[C@@H](NC(=O)C[C@@H](O)CCCCCCCCCCCCCCC)COC(=O)[C@H]([C@H](O)CCl)NC(=O)[C@H]([C@H](O)C(=O)O)NC1=O`: the minimal inhibitory concentration (MIC) in assay [1], in assay [2] and in assay [3] was more than 20 µg/mL throughout. In addition, in assay [4], the Ratio was more than 14.

As usually defined, the MIC is the smallest concentration in the dilution series that meets the test's criterion for growth inhibition. Lower therefore signals a more susceptible organism.
